Measured values as given in ChEMBL document CHEMBL1201862, “PubChem BioAssay data set” (2004).
The source made the active and inactive calls.

Experiments:
SUMO-activating enzyme [1] = biological target: T1, SUMO-activating enzyme (Homo sapiens, UniProt Q9UBT2); experiment: SUMOylation inhibitor hit validation, confirmation, SUMOylation inhibitor project, biochemical, AlphaScreen (AID 2018); type: functional
Vero = Vero cell cytotoxicity, cytotoxicity control for flavivirus capping enzyme inhibitors (AID 588742); type: functional; conditions: Chlorocebus sabaeus
SUMO E1/E2 = SUMO E1/E2 (Homo sapiens, UniProt P63279+Q9UBE0+Q9UBT2); experiment: SAR analysis of SUMOylation using HTRF in an in-Vitro dose response assay. [Related pubchem assays (depositor defined):AID2006, AID2011, AID2018, AID2069, AID2658]; type: functional
Protein RecA = biological target: T2, Protein RecA (Mycobacterium tuberculosis, UniProt P9WHJ3); experiment: Fluorescence Cell-Free Homogeneous Dose Retest to Identify Inhibitors of RecA-Intein Splicing Activity. [Related pubchem assays (depositor defined):AID2097, AID2223, AID489010, AID492950]; type: functional
T2 sequence (P9WHJ3 whole entry): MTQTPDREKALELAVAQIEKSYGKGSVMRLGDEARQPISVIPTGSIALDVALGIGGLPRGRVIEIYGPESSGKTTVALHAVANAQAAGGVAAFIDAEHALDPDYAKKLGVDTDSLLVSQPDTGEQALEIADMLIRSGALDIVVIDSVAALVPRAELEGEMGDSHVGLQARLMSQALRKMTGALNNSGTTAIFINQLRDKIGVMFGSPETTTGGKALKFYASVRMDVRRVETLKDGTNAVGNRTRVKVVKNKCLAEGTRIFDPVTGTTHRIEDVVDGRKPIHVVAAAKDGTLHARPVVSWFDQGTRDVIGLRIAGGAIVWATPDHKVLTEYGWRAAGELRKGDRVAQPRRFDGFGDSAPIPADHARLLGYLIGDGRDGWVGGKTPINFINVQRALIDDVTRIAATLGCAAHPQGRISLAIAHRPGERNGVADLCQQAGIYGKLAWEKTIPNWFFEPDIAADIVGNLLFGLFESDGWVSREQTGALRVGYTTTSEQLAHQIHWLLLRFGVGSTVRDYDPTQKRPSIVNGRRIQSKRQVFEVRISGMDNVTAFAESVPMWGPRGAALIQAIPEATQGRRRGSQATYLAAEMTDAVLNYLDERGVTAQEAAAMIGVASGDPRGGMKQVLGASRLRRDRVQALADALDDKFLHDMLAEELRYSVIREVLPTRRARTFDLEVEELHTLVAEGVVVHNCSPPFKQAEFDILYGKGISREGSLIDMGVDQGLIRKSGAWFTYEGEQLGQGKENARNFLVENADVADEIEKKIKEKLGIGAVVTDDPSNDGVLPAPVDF

SUMO-activating enzyme [2] = biological target: T1, SUMO-activating enzyme; experiment: inhibitors of in vitro SUMOylation cascade, primary screen, biochemical, HTRF, uHTS (AID 2006); type: protein-complex assay
Genome polyprotein = Genome polyprotein (dengue virus type 2, UniProt P29990); experiment: Dengue-2 NS5 methyltransferase inhibitors, primary screen, biochemical, confirmation dose response (AID 588689); type: functional
Genome polyprotein, sequence (P29990 2492-3391 limits assumed): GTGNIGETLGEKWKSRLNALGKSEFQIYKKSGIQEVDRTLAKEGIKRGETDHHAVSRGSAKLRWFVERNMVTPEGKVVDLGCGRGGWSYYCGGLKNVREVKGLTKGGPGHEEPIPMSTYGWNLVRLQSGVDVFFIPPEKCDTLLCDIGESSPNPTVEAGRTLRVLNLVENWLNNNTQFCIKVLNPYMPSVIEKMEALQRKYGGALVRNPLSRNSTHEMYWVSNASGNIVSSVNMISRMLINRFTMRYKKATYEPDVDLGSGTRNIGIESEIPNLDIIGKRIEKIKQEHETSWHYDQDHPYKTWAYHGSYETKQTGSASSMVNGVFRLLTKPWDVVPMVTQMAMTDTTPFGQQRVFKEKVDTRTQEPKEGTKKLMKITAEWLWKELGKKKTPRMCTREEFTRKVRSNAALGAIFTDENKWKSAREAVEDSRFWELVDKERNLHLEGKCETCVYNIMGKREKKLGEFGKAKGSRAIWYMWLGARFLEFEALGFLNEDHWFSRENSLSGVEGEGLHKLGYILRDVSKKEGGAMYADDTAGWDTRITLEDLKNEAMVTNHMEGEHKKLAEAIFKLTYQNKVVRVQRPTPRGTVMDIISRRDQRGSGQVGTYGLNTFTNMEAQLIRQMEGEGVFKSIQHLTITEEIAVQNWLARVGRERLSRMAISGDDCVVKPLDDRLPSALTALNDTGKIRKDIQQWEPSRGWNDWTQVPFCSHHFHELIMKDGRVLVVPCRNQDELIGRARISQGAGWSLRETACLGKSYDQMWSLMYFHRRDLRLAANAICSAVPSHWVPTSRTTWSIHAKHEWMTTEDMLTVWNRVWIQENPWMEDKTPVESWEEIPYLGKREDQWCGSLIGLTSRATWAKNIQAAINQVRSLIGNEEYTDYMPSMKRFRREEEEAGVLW

[3] = biological target: T3, Histone-lysine N-methyltransferase NSD2 (Homo sapiens, UniProt O96028); type: biochemical
T3 sequence (O96028 whole entry): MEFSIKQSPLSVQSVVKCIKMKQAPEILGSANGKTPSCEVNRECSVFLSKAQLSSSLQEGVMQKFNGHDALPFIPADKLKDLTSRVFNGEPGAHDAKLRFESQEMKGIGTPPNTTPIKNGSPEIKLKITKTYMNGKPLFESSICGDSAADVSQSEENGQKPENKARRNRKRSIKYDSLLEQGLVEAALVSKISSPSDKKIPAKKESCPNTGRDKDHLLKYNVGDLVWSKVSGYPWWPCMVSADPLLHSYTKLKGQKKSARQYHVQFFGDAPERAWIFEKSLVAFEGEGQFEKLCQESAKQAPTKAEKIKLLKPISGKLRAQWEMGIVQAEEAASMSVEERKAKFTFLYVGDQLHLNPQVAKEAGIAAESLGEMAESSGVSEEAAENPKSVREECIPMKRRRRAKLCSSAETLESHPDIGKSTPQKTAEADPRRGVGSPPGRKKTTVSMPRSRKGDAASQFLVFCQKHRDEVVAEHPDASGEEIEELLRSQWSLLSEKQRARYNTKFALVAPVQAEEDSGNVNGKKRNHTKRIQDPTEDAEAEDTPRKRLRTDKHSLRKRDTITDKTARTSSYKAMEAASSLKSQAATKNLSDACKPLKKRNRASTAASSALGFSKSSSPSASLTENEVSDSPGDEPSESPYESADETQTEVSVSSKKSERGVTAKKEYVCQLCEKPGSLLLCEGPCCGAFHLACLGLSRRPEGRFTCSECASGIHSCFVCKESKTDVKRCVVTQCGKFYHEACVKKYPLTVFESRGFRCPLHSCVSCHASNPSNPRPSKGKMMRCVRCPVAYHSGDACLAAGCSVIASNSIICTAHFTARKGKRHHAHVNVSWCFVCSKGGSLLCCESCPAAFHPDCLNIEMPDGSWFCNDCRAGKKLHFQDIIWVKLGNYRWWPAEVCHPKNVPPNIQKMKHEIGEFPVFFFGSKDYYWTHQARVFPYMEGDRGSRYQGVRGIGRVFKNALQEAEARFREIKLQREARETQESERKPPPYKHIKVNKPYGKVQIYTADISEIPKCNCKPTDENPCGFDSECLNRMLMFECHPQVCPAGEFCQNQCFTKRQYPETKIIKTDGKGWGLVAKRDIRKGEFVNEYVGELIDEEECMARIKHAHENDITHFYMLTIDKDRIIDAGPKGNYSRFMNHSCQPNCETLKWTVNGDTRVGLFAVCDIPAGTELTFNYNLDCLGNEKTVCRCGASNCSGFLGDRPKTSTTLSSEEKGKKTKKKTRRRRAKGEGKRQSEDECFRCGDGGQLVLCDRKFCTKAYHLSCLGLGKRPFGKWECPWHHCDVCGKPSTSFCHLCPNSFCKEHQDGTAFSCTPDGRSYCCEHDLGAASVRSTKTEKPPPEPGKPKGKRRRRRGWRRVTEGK

[4] = biological target: T4, Sentrin-specific protease 8 (Homo sapiens, UniProt Q96LD8); type: functional
T4 sequence (Q96LD8 whole entry): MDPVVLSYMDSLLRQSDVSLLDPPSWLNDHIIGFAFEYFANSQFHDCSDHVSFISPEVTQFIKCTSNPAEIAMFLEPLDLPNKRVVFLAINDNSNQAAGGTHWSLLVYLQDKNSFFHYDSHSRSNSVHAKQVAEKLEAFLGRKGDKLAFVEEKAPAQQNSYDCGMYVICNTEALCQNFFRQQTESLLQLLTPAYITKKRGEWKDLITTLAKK

[5] = biological target: T5, Polyadenylate-binding protein 1 (Homo sapiens, UniProt P11940); experiment: PABP1 MLLE–PAM2 binding inhibitor potency, dose response, biochemical, fluorescence polarization, FITC-PAM2 peptide (AID 602259); type: functional; conditions: read-out: IC50_Mean
T5 sequence (P11940 whole entry): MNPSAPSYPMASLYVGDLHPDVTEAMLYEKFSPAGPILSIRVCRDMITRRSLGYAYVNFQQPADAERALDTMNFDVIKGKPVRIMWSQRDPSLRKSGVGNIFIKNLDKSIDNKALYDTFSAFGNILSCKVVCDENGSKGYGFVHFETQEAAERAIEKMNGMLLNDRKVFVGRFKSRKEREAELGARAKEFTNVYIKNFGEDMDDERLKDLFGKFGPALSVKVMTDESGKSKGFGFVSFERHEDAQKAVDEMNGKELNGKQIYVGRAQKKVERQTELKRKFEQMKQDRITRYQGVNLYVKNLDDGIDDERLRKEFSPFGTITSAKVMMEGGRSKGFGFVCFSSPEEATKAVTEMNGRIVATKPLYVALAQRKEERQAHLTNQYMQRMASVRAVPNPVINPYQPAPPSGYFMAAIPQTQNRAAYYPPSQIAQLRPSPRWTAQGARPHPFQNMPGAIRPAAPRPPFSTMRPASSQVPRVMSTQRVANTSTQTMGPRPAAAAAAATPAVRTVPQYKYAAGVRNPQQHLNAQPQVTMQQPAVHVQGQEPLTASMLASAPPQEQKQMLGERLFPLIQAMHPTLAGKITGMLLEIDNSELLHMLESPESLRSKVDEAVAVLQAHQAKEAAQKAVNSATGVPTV

[6] = biological target: T4, Sentrin-specific protease 8; type: functional; remark: listed apart in the source
Nonstructural protein 1 = Nonstructural protein 1 (Influenza A virus, UniProt Q194T2); type: functional, Influenza A virus (A/California/07/2009(H1N1))
[7] = biological target: Glucose-6-phosphate 1-dehydrogenase (Homo sapiens, UniProt P11413); experiment: human G6PD enzyme inhibitors, dose response, selectivity assay for P. falciparum G6PD inhibitor project, biochemical, fluorescence (AID 504792); type: functional
Glucose-6-phosphate 1-dehydrogenase, sequence (P11413 whole entry): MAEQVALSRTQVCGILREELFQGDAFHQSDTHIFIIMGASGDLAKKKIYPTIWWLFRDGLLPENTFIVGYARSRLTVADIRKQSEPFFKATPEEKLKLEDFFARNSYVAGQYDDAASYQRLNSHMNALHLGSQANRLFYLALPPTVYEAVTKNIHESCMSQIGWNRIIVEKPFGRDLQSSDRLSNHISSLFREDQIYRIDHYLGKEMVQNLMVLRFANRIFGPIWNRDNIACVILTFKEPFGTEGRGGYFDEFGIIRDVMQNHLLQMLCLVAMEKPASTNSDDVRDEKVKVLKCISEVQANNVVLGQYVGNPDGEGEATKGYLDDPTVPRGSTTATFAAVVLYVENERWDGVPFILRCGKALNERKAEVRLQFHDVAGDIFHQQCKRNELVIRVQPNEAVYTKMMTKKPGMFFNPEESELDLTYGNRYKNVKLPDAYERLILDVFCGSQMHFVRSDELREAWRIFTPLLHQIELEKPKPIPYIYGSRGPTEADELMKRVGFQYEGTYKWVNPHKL

[8] = biological target: T5, Polyadenylate-binding protein 1; experiment: PABP1 MLLE–PAM2 interaction inhibitors, dose response, miRNA deadenylation inhibitor project, biochemical, fluorescence polarization, Cy5-PAM2 peptide, secondary (AID 602260); type: functional; conditions: read-out: IC50_Mean
Phospholipase D2 = Phospholipase D2 (Homo sapiens, UniProt O14939); experiment: PLD2 inhibitor potency in cells, dose response (AID 602147); type: functional;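 also: cellular assay in HEK293 cells overexpressing GFP-tagged PLD2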
Phospholipase D2, sequence (O14939 whole entry): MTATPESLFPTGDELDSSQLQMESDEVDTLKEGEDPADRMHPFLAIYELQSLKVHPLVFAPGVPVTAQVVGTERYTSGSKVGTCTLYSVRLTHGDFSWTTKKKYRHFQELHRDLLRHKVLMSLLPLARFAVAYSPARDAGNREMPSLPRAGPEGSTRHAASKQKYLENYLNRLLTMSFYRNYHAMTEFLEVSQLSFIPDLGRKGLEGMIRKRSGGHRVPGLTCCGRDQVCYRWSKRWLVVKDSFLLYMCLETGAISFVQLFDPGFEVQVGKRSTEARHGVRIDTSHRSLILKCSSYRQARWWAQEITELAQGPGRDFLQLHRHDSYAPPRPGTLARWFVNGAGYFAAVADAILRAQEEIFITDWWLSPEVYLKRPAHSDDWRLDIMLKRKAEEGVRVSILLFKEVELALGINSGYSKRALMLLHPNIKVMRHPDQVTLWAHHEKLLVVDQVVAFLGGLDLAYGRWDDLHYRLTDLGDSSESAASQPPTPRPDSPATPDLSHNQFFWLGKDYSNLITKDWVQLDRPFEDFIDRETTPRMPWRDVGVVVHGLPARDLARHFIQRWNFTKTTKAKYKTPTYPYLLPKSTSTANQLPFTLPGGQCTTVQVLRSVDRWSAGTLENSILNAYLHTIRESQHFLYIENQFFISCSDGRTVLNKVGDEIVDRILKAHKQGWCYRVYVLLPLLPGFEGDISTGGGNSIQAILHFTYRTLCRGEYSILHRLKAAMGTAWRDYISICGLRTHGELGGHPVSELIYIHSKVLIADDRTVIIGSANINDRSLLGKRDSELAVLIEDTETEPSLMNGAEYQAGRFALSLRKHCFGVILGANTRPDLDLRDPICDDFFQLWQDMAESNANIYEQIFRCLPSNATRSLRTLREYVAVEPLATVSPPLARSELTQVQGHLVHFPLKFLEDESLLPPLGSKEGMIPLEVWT

Phospholipase D1 = Phospholipase D1 (Homo sapiens, UniProt Q13393); experiment: PLD1 inhibitor potency in cells, dose response (AID 602151); type: functional;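 also: cellular PLD1 assay in Calu-1 cells stimulated with PMA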
Phospholipase D1, sequence (Q13393 whole entry): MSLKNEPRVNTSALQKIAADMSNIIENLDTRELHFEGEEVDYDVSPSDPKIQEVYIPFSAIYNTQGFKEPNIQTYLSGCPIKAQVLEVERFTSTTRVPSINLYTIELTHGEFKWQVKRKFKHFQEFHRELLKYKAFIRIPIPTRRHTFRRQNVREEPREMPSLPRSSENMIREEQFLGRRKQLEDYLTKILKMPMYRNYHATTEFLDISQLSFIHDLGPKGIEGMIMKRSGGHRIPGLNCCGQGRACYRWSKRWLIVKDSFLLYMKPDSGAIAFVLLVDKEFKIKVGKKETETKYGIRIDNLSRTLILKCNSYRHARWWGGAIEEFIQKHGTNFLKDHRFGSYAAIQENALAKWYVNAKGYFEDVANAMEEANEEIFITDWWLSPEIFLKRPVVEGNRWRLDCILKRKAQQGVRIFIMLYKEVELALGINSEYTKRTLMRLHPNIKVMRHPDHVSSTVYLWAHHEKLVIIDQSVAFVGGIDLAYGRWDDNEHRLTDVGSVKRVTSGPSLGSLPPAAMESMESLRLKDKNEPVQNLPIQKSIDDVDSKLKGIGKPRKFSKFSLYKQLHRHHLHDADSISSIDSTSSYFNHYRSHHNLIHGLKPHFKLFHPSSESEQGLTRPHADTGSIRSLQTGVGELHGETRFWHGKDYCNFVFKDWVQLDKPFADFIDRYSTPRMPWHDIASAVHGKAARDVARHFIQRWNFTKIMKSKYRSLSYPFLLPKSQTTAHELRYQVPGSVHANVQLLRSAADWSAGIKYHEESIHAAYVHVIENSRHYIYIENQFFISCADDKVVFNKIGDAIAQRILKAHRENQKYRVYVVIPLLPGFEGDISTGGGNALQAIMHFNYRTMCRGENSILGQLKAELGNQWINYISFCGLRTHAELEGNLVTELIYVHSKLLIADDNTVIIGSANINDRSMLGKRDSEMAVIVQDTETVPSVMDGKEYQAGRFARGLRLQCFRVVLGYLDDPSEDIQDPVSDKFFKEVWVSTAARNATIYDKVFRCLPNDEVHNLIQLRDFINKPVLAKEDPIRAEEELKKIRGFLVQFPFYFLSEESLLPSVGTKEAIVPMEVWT

T1 sequence (Q9UBE0 whole entry): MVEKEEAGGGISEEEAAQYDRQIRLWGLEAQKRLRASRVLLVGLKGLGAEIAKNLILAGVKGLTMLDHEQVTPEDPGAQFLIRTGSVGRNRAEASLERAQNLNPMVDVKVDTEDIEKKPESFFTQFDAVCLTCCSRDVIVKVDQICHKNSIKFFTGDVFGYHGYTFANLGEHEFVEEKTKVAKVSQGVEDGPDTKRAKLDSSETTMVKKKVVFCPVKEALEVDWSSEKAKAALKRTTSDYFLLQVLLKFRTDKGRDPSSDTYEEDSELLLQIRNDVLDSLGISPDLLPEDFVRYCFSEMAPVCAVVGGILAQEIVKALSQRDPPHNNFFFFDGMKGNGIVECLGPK
T1 sequence (Q9UBT2 whole entry): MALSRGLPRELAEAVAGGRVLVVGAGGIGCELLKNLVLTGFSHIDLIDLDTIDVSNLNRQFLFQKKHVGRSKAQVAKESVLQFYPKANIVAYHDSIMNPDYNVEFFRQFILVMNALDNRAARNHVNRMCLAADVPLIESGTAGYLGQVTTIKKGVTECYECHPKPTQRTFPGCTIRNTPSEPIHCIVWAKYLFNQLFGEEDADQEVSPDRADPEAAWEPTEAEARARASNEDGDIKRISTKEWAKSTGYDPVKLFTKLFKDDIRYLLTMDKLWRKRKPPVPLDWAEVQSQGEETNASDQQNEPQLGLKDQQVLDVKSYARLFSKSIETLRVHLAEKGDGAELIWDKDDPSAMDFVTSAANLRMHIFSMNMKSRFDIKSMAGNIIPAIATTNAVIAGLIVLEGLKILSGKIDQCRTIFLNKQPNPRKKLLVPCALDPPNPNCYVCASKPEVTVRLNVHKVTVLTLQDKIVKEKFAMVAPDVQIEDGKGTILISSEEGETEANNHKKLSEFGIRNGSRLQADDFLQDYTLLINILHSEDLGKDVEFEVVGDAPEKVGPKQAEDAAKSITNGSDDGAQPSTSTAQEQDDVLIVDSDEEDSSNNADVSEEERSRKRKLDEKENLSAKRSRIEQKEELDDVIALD

For `CCCCn1c(NC(=O)c2ccc(Br)o2)c(S(=O)(=O)c2ccccc2)c2nc3ccccc3nc21`, the IC50 (SUMO-activating enzyme [1]) was 2.8 µM (active), the CC50 (Vero) was > 40 µM (active) and the IC50 (SUMO E1/E2) was 20.3 µM (active). For the same molecule, the EC50 (Protein RecA) was 108 µM (inconclusive), the IC50 (SUMO-activating enzyme [2]) was 10.6 µM (active) and the IC50 (Genome polyprotein) was 75.4 µM (active). The AC50 [3] was 7.79 µM (active).
`Cc1cnc(C=NNC(N)=S)c2cccc(N)c12` was tested, and the IC50 [4] was 2.83 µM (active), the IC50 [5] was > 66 µM (inactive) and the IC50 [6] was 8.74 µM (active). For the same molecule, the CC50 (Vero) was 4.93 µM (active), the IC50 (Nonstructural protein 1) was 2.39 µM (active) and the IC50 [7] was 32.1 µM (inactive). The IC50 [8] was > 66 µM (inactive).
With `O=C(NCCN1CCC2(CC1)C(=O)NCN2c1ccccc1)c1cc2cc(F)ccc2[nH]1` the IC50 (Phospholipase D2) was 0.07 µM (active) and the IC50 (Phospholipase D1) was 0.1 µM (active).
`C[C@@H](CN1CCC(n2c(=O)[nH]c3cc(Br)ccc32)CC1)NC(=O)c1ccc(F)cc1` was tested, and the IC50 (Phospholipase D2) was 0.34 µM (active) and the IC50 (Phospholipase D1) was 0.004 µM (active).
